Laboratory results taken from patent US12544350B2, “Combinatorial antitumor treatment methods and related compositions, kits, and systems” (Klotho Therapeutics, Inc., priority 2021, dated 2026).

Experiments:
[1] = system: cisplatin induced acute kidney injury (CI-AKI) in mice; experiment: Cisplatin-induced acute kidney injury (CI-AKI) in mice, Compound 3 (Example 11); assay type: in vivo, female C57BL/6J mice
Description: The aim of the study was to investigate the efficacy of test compounds in the model of cisplatin induced acute kidney injury (CI-AKI) in mice. […] Serum analysis for urea (BUN) was performed on the 5th day and 9th days after cisplatin administration. The mean body weight loss per group was calculated every day of the study as percentage loss of initial (day 0) weight for each individual animal.
Study design, animal selection, handling and treatment were all in accordance with the CRO's study protocols and Institutional Animal Care and Use Guidelines. Animal treatment and serum samples preparation were conducted by the Animal Laboratory personnel at the CRO. 60 female C57BL/6J mice 9-12 weeks old were randomized by body weight and divided into 2 groups, 30 animals each. Body weights ranged from 13.9 to 22.0 g with an average body weight across all groups 17.75 g (SD=1.30; CV=7.3%). Each mouse was treated with a single dose via IP route of administration with cisplatin at the dose of 11 mg/kg on the day 0 of the study. […] The mice in Group 1 remained untreated after the cisplatin injection until the terminal sacrifice.
Cisplatin was administered without dilution as a factory-made 1 mg/ml solution for infusion at the injection volume of 11 ml/kg for the dose of 11 mg/kg. […] Only freshly prepared formulation was used for each dosing; each working formulation batch was prepared immediately prior to the administration. The working formulations were sterile filtered using 0.2 μm cellulose acetate syringe filters before injections. The dosing volume for the test compound was 5 ml/kg of body weight. The working formulations were administered as transparent clear solutions. Intraperitoneal (IP) route of administration was used in the study. Urea (BUN) was determined in the serum using a commercial kit according to the manufacturer's instructions. […] The rate of absorbance change at λ=340 nm is proportional to the urea concentration. […] Creatinine was measured using Modified Jaffe's method, without deproteinization. […]

[2] = system: cisplatin-induced acute kidney injury (AKI) in male Sprague Dawley rats; experiment: Cisplatin-induced acute kidney injury (AKI) in rats, 90 minutes infusion (Example 12); assay type: in vivo; settings: for body weight change over baseline (BWC): day 0-6, after post-treatment period, cisplatin 5 mg/kg IP
Description: The goal of this study was to assess the effect of compound 22 at the doses of 50 mg/kg and 25 mg/kg on the development of cisplatin-induced acute kidney injury (AKI) in male Sprague Dawley rats. Compound 22 was administrated repeatedly seven consecutive days by 90 minutes infusion into a jugular vein using automatic pumps. Treatment was initiated simultaneously with the single intraperitoneal (IP) administration of cisplatin at the dose of 5 mg/kg. The experimental animal's mortality was recorded daily. […] Serum analysis for Creatinine and Urea were performed on day −4th (blank), 1st, 3rd, 6th, 9th, and 12th (terminal) day of the study.
Rat's jugular vein catheterization. Rat's jugular vein catheterization procedure was performed on −3rd day of the study. All experimental animals were anesthetized prior to surgical intervention by Telazol at the dose of 40 mg/kg body weight and Xylazine at the dose of 8 mg/kg body weight. The anesthetized rat was placed onto a heated surgical platform. The surgical area was shaved and gently scrubbed with a drop of iodine in 96% ethanol solution. The skin incision (2 cm) was made on the right of the midline of the neck at the level of the clavicle using a scalpel. Dissected jugular vein, separated from the salivary and lymphatic tissues, was visualized and isolated approximately 5 mm section of the vessel. The cranial end of the vessel was tied using 4-0 silk ligatures. By micro surgical scissors an incision was made to pass the catheter into the vein approximately 20 mm towards the heart. The caudal end of the jugular vein was tied to catheter's collar with silk ligatures aimed to secure the place of catheter. The free end of catheter was tunneled subcutaneously and connected to a transcutaneous button that features an external port with a cap at the nape of the animal's neck. […] To prevent dehydration after the surgery animals were injected with 2 ml physiological saline intraperitoneal. To prevent catheter occlusion and ensure its functioning flushing 0.10-0.20 ml amount of physiological saline with anticoagulant (Heparin, 500 IU/ml) was applied. First time catheter flushing was performed immediately after catheter was properly positioned in the jugular vein and fixed there. The procedure was repeated prior to infusion start. When a catheter was not in use, it was locked. The infusion was started three days after the catheter placement.
Fluid infusion. Programmable automatic syringe pumps system allowed for a fluid infusion of delivering determined volume at the selected infusion time. After the catheter flushing animals were connected to the tether and the swivel setup permitted free movement of the animal during the infusion. The duration of infusion was 90 minutes. The volume of infusion was 10 ml/kg; infusion rate was determined automatically according to time of infusion and volume of the administrated formulation. The infusions were performed from 10 am to […] in a random order.
Drug formulation. Route and volume of administration. Cisplatin was administered without dilution as a factory-made 1 mg/ml solution for infusion at the injection volumes of 5 ml/kg which corresponded to the doses of 5 mg/kg. IP route was used for cisplatin administration in the study. Compound 22 was formulated in sterile conditions in physiological saline at the concentrations 5 mg/ml for the dose level 50 mg/kg and 2.5 mg/ml for the dose level 25 mg/kg and was administrated as true solution. All formulations were sterilized by filtration via Minisart RC 0.2 μm sterile syringe filter. Compound 22 infusion duration was 90 minutes. The administrated volume for all group was 10 ml/kg of the body weight.
Frequency and duration of the application. cisplatin was administered once on day 0 of the study, 30 min before first infusion. Compound 22 as well as vehicle was administrated 7 consecutive days (day 0-day 6) once per day.
Duration of the experimental period. […]

[3] = system: cisplatin-induced acute kidney injury (CI-AKI) mouse model; experiment: Cisplatin-induced acute kidney injury (CI-AKI) mouse model, Compound 22 (Example 9); assay type: in vivo, female C57BL/6J mice; settings: for gradual recovery of mean body weight, onset: cisplatin 11 mg/kg IP day 0
Description: The aim of the study was to investigate the efficacy of test compound(s) in a (mouse) model for acute kidney injury. Specifically, the study investigated the efficacy of test compound(s) in cisplatin-induced acute kidney injury (CI-AKI) mouse model. For example, the effect of daily repeated intraperitoneal (IP) administration of Compound 22 at doses of 50 mg/kg for 7 consecutive days in four different treatment regimens on development of pathology in mice in CI-AKI model was evaluated. Serum analysis for urea (BUN) was performed on the 5th day and 12th days after cisplatin administration. The mean body weight loss per group was calculated every day of the study as percentage loss of initial (day 0) weight for each individual animal.
Study design, animal selection, handling and treatment were all in accordance with the CRO's study protocols and Institutional Animal Care and Use Guidelines. Animal treatment and serum samples preparation were conducted by the Animal Laboratory personnel at the CRO. 100 female C57BL/6J mice 11-14 weeks old were randomized by body weight and divided into five groups, 20 animals each. Body weights ranged from 16.9 to 22.5 g with an average body weight across all groups 19.54 g (SD=1.04; CV=5.3%). Each mouse was treated with a single dose via IP route of administration with cisplatin at the dose of 11 mg/kg on the day 0 of the study. The mice in Group 2 and 4 were repeatedly treated with Compound 22 at the dose of 50 mg/kg with an interval of 24 h for seven consecutive days starting from Day 2 or Day 0 of the study, respectively. […]
To induce acute kidney injury, cisplatin was administered without dilution as a factory-made 1 mg/ml solution for infusion at the injection volume of 11 ml/kg for the dose of 11 mg/kg. […] Urea (BUN) was determined in the serum using a commercial kit according to the manufacturer's instructions. […] The rate of absorbance change at λ=340 nm is proportional to the urea concentration. […]

LLC animals = experiment: Cancer treatment: survival and anti-tumor efficacy in LLC animals (Example 13); assay type: in vivo; settings: day 15; Compound 22 (50 mg/kg), cisplatin (10 mg/kg)
Text: Compositions, system, and/or kits of the present disclosure can be effective at treating cancer and/or tumors. For example, a treatment protocol comprising illustrative compound 22 and cisplatin, co-administered is effective as an anti-tumor treatment, in addition to compound 22 preventing/attenuating kidney damage (caused by the chemotherapeutic nephrotoxin), restoring kidney function, and/or increasing patient survival during chemotherapy. FIG. 19 illustrates the survival efficacy of Compound 22 (50 mg/kg), cisplatin (10 mg/kg), and the combination of Compound 22+cisplatin in LLC animals. The co-administration of compound 22 (an illustrative PTBA prodrug) increased the probability of survival in LLC animals at day 15 from ˜75% (cisplatin alone) to ˜95% (Compound 22+cisplatin co-administration). FIG. 20 illustrates the anti-tumor efficacy of Compound 22, cisplatin, and the combination of Compound 22+cisplatin in LLC animals. cisplatin was administered to LLC animals at day 5 and day 14 of a 21 day study. Compound 22 was co-administered (once daily) 48 hours after each dose of cisplatin, and for 6 additional, consecutive days thereafter.

[4] = 50 mg/kg IP, 5th day after the cisplatin injection

CN(C)CCOC(=O)CCCSc1ccccc1 [Compound 3, 2-(dimcthylamino)ethyl 4-(phenylsulfanyl)butanoate]
mean level of creatinine in serum compared to G1 [1, 4]: significantly less | mean level of urea in serum compared to G1 [1, 4]: significantly less | gradual recovery of mean body weight, onset ([1]; G2: 50 mg/kg IP every 24 h for seven days from Day 2, cisplatin 11 mg/kg IP day 0): beginning from the sixth day of the study

C[N+](C)(C)CCOC(=O)CCCSc1ccccc1.Cl [Compound 22, N,N,N-trimethyl-2-{[4-(phenylsulfanyl)butanoyl]oxy}ethan-1-aminium chloride]
body weight change, comparison with the cisplatin, vehicle group ([2]; 25 mg/kg): No statistical significance | histopathology scores compared to Vehicle-treated animals with cisplatin injection ([2]; 25 mg/kg): no significant difference | body weight change over baseline (BWC) ([2]; 25 mg/kg infusion once per day): −17.6% | kidney histopathology: cast deposition ([2]; 25 mg/kg, H&E, terminal day): medium | kidney histopathology: connective tissue accumulation ([2]; 25 mg/kg, H&E, terminal day): mild | kidney histopathology: glomerulonephritis ([2]; 25 mg/kg, H&E, terminal day): mild | kidney histopathology: hemorrhages ([2]; 25 mg/kg, H&E, terminal day): occasional | kidney histopathology: interstitial nephritis ([2]; 25 mg/kg, H&E, terminal day): medium/severe | kidney histopathology: loss of brush border ([2]; 25 mg/kg, H&E, terminal day): severe | kidney histopathology: loss of tubules ([2]; 25 mg/kg, H&E, terminal day): mild | kidney histopathology: necrotic loci ([2]; 25 mg/kg, H&E, terminal day): medium-frequent | kidney histopathology: tubular atrophy ([2]; 25 mg/kg, H&E, terminal day): mild | kidney histopathology: tubular dilation ([2]; 25 mg/kg, H&E, terminal day): medium | kidney histopathology: tubular epithelium flattening ([2]; 25 mg/kg, H&E, terminal day): medium/severe | kidney histopathology: tubular epithelium loss ([2]; 25 mg/kg, H&E, terminal day): medium | kidney histopathology: tubular hyperplasia ([2]; 25 mg/kg, H&E, terminal day): occasional | serum Creatinine values compared to the cisplatin, vehicle-treated group ([2]; 25 mg/kg, day 6): significant decrease | serum Urea values compared to the cisplatin, vehicle group ([2]; 25 mg/kg, day 6): significant decrease | body weight change, comparison with the cisplatin, vehicle group ([2]; 50 mg/kg): No statistical significance | histopathology scores compared to Vehicle-treated animals with cisplatin injection ([2]; 50 mg/kg): no significant difference | severity of weight loss in individual animals (frequency distribution analysis) ([2]; 50 mg/kg and 25 mg/kg, end of the study period, compared to cisplatin treatment): decreases the severity of weight loss | body weight change over baseline (BWC) ([2]; 50 mg/kg infusion once per day, survived animals): −3.9% | kidney histopathology: cast deposition ([2]; 50 mg/kg, H&E, terminal day): mild | kidney histopathology: connective tissue accumulation ([2]; 50 mg/kg, H&E, terminal day): mild | kidney histopathology: interstitial nephritis ([2]; 50 mg/kg, H&E, terminal day): mild/medium | kidney histopathology: loss of brush border ([2]; 50 mg/kg, H&E, terminal day): severe | kidney histopathology: loss of tubules ([2]; 50 mg/kg, H&E, terminal day): occasional | kidney histopathology: necrotic loci ([2]; 50 mg/kg, H&E, terminal day): occasional | kidney histopathology: tubular atrophy ([2]; 50 mg/kg, H&E, terminal day): medium/mild | kidney histopathology: tubular basophilia ([2]; 50 mg/kg, H&E, terminal day): occasional | kidney histopathology: tubular dilation ([2]; 50 mg/kg, H&E, terminal day): medium | kidney histopathology: tubular epithelium flattening ([2]; 50 mg/kg, H&E, terminal day): medium | kidney histopathology: tubular epithelium loss ([2]; 50 mg/kg, H&E, terminal day): medium | kidney histopathology: tubular epithelium vacuolation ([2]; 50 mg/kg, H&E, terminal day): occasional | kidney histopathology: tubular hyperplasia ([2]; 50 mg/kg, H&E, terminal day): occasional | serum Creatinine values compared to the cisplatin, vehicle-treated group ([2]; 50 mg/kg, day 6): significant decrease | serum Creatinine values compared to the cisplatin, vehicle-treated group ([2]; 50 mg/kg, day 9): significant decrease | serum Urea values compared to the cisplatin, vehicle group ([2]; 50 mg/kg, day 9): significant decrease | cisplatin-induced AKI development (serum Creatinine and Urea levels during infusions and post-infusion period) ([2]; both tested doses (50 mg/kg and 25 mg/kg)): prevented cisplatin-induced AKI development | gradual recovery of mean body weight, onset ([3]; G2-G3: 50 mg/kg IP once or twice a day, days 2-8): beginning from the fifth day of the study | mean level of urea in serum compared to G1 ([3]; G2-G5, 50 mg/kg IP, 5th day after the cisplatin injection): significantly less | gradual recovery of mean body weight, onset ([3]; G4-G5: 50 mg/kg IP once or twice a day, days 0-6): beginning from the seventh day of the study

N.N.[Cl][Pt][Cl] [cisplatin]
probability of survival in LLC animals (LLC animals): ~75%
